Key:
[1] = Metabolic profiling in human liver microsomes (LC-HRMS); type: in vitro ADME
Protocol: (§1) The objective of the study is to evaluate the formation of the main metabolites from B06 in HLM incubations and MLM incubations preceding the in vivo metabolic study, using these same incubations to identify the possible metabolites. […] Reactions without NADPH were also incubated to rule out non-NADPH metabolism or chemical instability in the incubation buffer. Verapamil was included as positive control to monitor incubation course. All reactions were terminated using 60 µL of ice-cold acetonitrile at 0, 5, 15, 30, 45, and 60 min. The plates were centrifugated at 3500 rpm for 15 min. All experiments were conducted in triplicates. Samples were analysed by LC-HMRS in positive ionization mode. Compound incubations without NADPH and compound reference standard were used as interference control for each incubation sample.
Metabolic profiling of B06 in human liver microsomes
The equipment used for the analysis was an Agilent 1290 Infinity UHPC, ABSciex 5600 QTOF Mass Spectrometer, Metabolite Pilot V 1.5 Sofware.
Method: ionization mode, electrospray positive; acquisition mode, TOF MS with IDA MS/MS; […]
All the tentative identified metabolites have been evaluated using of a score (40 value). This score depend on mass defect, isotope pattern, mass a ccur a cy and MS/MS. In all the cases the score was equal or greater than 68%.
Table S9. Metabolite time course in HLM incubations for B06
Peak Description Time Formula m/z Mass R.T. Peak % %
ID incubation error (min) Area Area Score […]

[2] = Metabolic profiling in mouse liver microsomes (LC-HRMS); type: in vitro ADME
Protocol: as §1
Metabolic profiling of B06 in mouse liver microsomes
The equipment used for the analysis wa s an Agilent 1290 Infinity UHPC, ABSciex 5600 QTOF Mass Spectrometer, Metabolite Pilot V 1.5 Sofware.
Method: ionization mode, electrospray positive; acquisition mode, TOF MS with IDA MS/MS; colum, Atlantis T3 C18, 2.1 x 15 mm, 3 μ m; mobile phase, water:acetonitrile: 0.1% formic acid; flow […]
All the tentative identified metabolites have been evaluated using of a score (40 value). This score depend on mass defect, isotope pattern, mass accuracy and MS/MS. In all the cases the score was equal or greater than 68%.
All analytical determinations of B06 were performed in according to the recommendations of the […]
Table S10. Metabolite time course in MLM incubations for B06
Peak Description Time Formula m/z Mass R.T. Peak Area % %
ID incubation error (min) Area Score
1 Safety testing of drug metabolites. Guidance for industry. U.S. Department of Health and Human Services Food and Drug Administration Center for Drug Evaluation and Research (CDER) March 2020 Pharmacology/Toxicology. https://www.fda.gov/regulatory‐information/search‐fda‐guidance‐ documents/safety‐testing‐drug‐metabolites

SAMP8 murine model = details: cited from earlier work
[3] = system: imidazoline I2 receptors (I2-IR); parameters: method as in ref 32, 33 = [32]; 32. Escolano C. Pallás M. Griñán-Ferré C. Abás S. Callado L.-F. García-Sevilla J.A. Synthetic I 2 Imidazoline Receptor Ligands for Prevention or Treatment of Human Brain Disorders Patent WO 2019/12185 || [33]; PMID 32150414; doi:10.1021/acs.jmedchem.9b02080; 33. Abás S. Rodríguez-Arévalo S. Bagán A. Griñán-Ferré C. Vasilopoulou F. Brocos-Mosquera I. Muguruza C. Pérez B. Molins E. Luque F.J. Bicyclic α-Iminophosphonates as High Affinity Imidazoline I 2 Rec; details: cited from earlier work

Compound: CCOP(=O)(O)[C@]1(c2ccccc2)N=C[C@H]2C(=O)N(c3ccc(F)c(Cl)c3)C(=O)[C@H]21 [Compound 1, ethyl hydrogen [(1R,3aS,6aS)-5-(3-chloro-4-fluorophenyl)-4,6-dioxo-1-phenyl-1,3a,4,5,6,6a-hexahydropyrrolo[3,4-c]pyrrol-1-yl]phosphonate]
- % Area of metabolite in chromatogram ([1]; HLM incubation of B06, 15 min): 8.4%
- % Area of metabolite in chromatogram ([1]; HLM incubation of B06, 30 min): 17.8%
- % Area of metabolite in chromatogram ([1]; HLM incubation of B06, 45 min): 26.2%
- % Area of metabolite in chromatogram ([1]; HLM incubation of B06, 60 min): 36%
- % Area of metabolite in chromatogram ([1]; HLM incubation of B06, 60 min, listed as M1): 36.0%
- % Area of metabolite in chromatogram ([2]; MLM incubation of B06, 5 min): 10.7%
- % Area of metabolite in chromatogram ([2]; MLM incubation of B06, 15 min): 30.9%
- % Area of metabolite in chromatogram ([2]; MLM incubation of B06, 30 min): 60.9%
- % Area of metabolite in chromatogram ([2]; MLM incubation of B06, 45 min): 81.6%
- % Area of metabolite in chromatogram ([2]; MLM incubation of B06, 60 min): 88.9%

Compound: CCOP(=O)(OCC)C1(c2ccccc2)N=CN(Cc2ccc(F)c(Cl)c2)C1(C)C (stereo not shown) [MCR5]
- effect on cognition and hallmarks (SAMP8 murine model): cognitive improvement and amelioration of hallmarks

Compound: c1ccc2c(c1)OCC(C1=NCCN1)O2 (stereo not shown) [idazoxan]
- ratio of I2/α2 ([3]; I2-IR ([3H]2-BFI) versus α2-AR ([3H]RX821002), human frontal cortex): non I2/α2 selectivity
- pKi ([3]; membranes of post mortem human frontal cortex, against [3H]2-BFI): 7.41 ± 0.63

— PMC9141032 (International Journal of Molecular Sciences, 2022)
